The values below come from patent publication US4435417A, “Antiinflammatory 3H-naphtho[1,2-d]imidazoles” (Gruppo Lepetit S.p.A., priority 1982, dated 1984).

One data set is described as follows: in vivo. The conditions noted are these: mouse, po. The protocol: The toxicities were determined according to Lichtfield and Wilcoxon, Journ. Pharm.
Data set [1] concerns granuloma formed on a cotton pellet implanted subcutaneously in rats. Briefly: Cotton pellet granuloma test in rats (Meier et al.). The conditions noted are these: Rattus norvegicus, po, read-out: Percent inhibition of the granuloma pellet.
The test system of data set [2] is carrageenin-induced edema in the rat paw. Kind of data set: Carrageenin-induced edema of the rat paw (Winter et al.). Particulars: po, read-out: Percent inhibition of the carrageenin-induced edema; for inhibition in vivo at 50 mg/kg: 50 mg/kg os; for inhibition in vivo at 100 mg/kg: 100 mg/kg os; for inhibition in vivo at 200 mg/kg: 200 mg/kg os; for inhibition in vivo at 20 mg/kg: 20 mg/kg os. The format is in vivo.

For data set [3], the system named is adjuvant induced arthritis in rats. Briefly: Adjuvant induced arthritis test in rats (Newbold). The conditions noted are these: rats p.o. The format is in vivo, rat. The protocol: In still another some of the compounds were tested in the adjuvant induced arthritis test in rats.
This test which was performed as described by B. B. Newbold in Bri. Journ. Pharmacol., 21, 127, (1963), is absolutely meaningful, because adjuvant arthritis is one of the best pharmacological tool with which a pharmacologist can investigate compounds as to their possible antiinflammatory activity, owing to the fact that this experimental model of chronic inflammation looks closer like to the conditions of rheumatoid arthritis of the human pathology (see Pearson, C. M., Arthritis and allied conditions, page 119, Lea and Febiger Publ. 1967 and Pearson C. M., J. Chronic Diseases, 16, 863 (1963).
. The measure of effectiveness of the compounds in this test is given by their ability in reducing the volume of the hind paws of the rats.

`Cn1c(-c2ccccc2)nc2c3ccccc3ccc21` [Example 1, 3-methyl-2-phenyl-3H-naphtho[1,2-d]imidazole] registered an LD50 in “in vivo” of 1000 mg/kg. Further, in data set [1], the inhibition in vivo at 200 mg/kg was 24%. Also, in data set [2], the inhibition in vivo at 50 mg/kg came to 24%, the inhibition in vivo at 100 mg/kg worked out at 37% and the inhibition in vivo at 200 mg/kg was determined as 42%.

Compound `CCOc1ccc(-c2nc3c4ccccc4ccc3n2C)cc1` [Example 2, 3-methyl-2-(4-ethoxyphenyl)-3H-naphtho[1,2-d]imidazole] returned an LD50 in the data set “in vivo” of over 1000 mg/kg. The inhibition in vivo at 200 mg/kg in data set [1] turned out to be 40%. For the same compound, in data set [2], the inhibition in vivo at 50 mg/kg was 21%, the inhibition in vivo at 100 mg/kg was found to be 37% and the inhibition in vivo at 200 mg/kg came to 45%.

With `COc1ccc(-c2nc3c4ccccc4ccc3n2C)cc1` [Example 3, 2-(4-methoxyphenyl)-3-methyl-3H-naphtho[1,2-d]imidazole], the LD50 in the data set “in vivo” is about 1000 mg/kg. In addition, the inhibition in vivo at 100 mg/kg was determined as 40% in data set [1] and 41% in data set [2]. The “% Reduction of the volume of the hind paws over the control” value (from here on “% Reduction”) in data set [3] (200 mg/kg) worked out at 33%. For the same compound, the inhibition in vivo at 50 mg/kg in data set [2] turned out to be 34%.

Regarding `CN(C)c1ccc(-c2nc3c4ccccc4ccc3n2C)cc1` [Example 4, N,N-dimethyl-4-(3-methyl-3H-naphtho[1,2-d]imidazol-2-yl) benzenamine], in “in vivo”, the LD50 was 500 mg/kg. In addition, the inhibition in vivo at 100 mg/kg in data set [1] amounted to 24%. Besides, in data set [2], the inhibition in vivo at 20 mg/kg is 32%, the inhibition in vivo at 50 mg/kg was found to be 46% and the inhibition in vivo at 100 mg/kg was found to be 54%.

`Cc1cc(-c2nc3c4ccccc4ccc3n2C)ccc1N(C)C` [Example 5, 4-(3-methyl-3H-naphtho[1,2-d]imidazol-2-yl)-2,N,N-trimethylbenzenamine] gave an LD50 in “in vivo” of 500 mg/kg. Further, the inhibition in vivo at 100 mg/kg in data set [1] stood at 38%. Besides, in data set [3] (100 mg/kg), the “% Reduction” value is reported as 42%. Besides, in data set [2], the inhibition in vivo at 20 mg/kg turned out to be 35%, the inhibition in vivo at 50 mg/kg is 50% and the inhibition in vivo at 100 mg/kg amounted to 64%.

Compound `CNc1ccc(-c2nc3c4ccccc4ccc3n2C)cc1` [Example 7, N-methyl-4-(3-methyl-3H-naphtho[1,2-d]imidazol-2-yl)benzenamine] yielded an LD50 in the data set “in vivo” of 500 mg/kg. The inhibition in vivo at 100 mg/kg in data set [1] amounted to 33%. Also, in data set [2], the inhibition in vivo at 20 mg/kg was 29%, the inhibition in vivo at 50 mg/kg stood at 37% and the inhibition in vivo at 100 mg/kg turned out to be 47%.

Regarding `COc1ccc(-c2nc3c4ccccc4ccc3n2C(C)C)cc1` [Example 9, 3-(1-methylethyl)-2-(4-methoxyphenyl)-3H-naphth[1,2-d]imidazole], the inhibition in vivo at 200 mg/kg in data set [1] is 45%. The “% Reduction” value in data set [3] (200 mg/kg) came to 53%. Also, in data set [2], the inhibition in vivo at 50 mg/kg turned out to be 32%, the inhibition in vivo at 100 mg/kg worked out at 45% and the inhibition in vivo at 200 mg/kg turned out to be 48%.

`CCn1c(-c2ccc(OC)cc2)nc2c3ccccc3ccc21` [Example 15, 3-ethyl-2-(4-methoxyphenyl)-3H-naphtho[1,2-d]imidazole] displayed an LD50 in “in vivo” of over 1000 mg/kg. For the same compound, the inhibition in vivo at 200 mg/kg in data set [1] amounted to 31%. Moreover, in data set [2], the inhibition in vivo at 20 mg/kg came out at 31%, the inhibition in vivo at 50 mg/kg was determined as 45%, the inhibition in vivo at 100 mg/kg was determined as 49% and the inhibition in vivo at 200 mg/kg turned out to be 52%.
